Source: patent US9233965B2, “3,4-dihydropyrrolo[1,2-A]pyrazine-2,8(1H)-dicarboxamide derivatives, preparation thereof and therapeutic use thereof for diseases involving casein kinase 1 epsilon and/or casein kinase 1 delta” (SANOFI, priority 2010, dated 2016)

Legend:
[1] = biological target: casein kinase 1 epsilon (CK1 epsilon) (Homo sapiens (Human), UniProt P49674); test: Test A: inhibitory activity on CK1 epsilon, casein phosphorylation assay on ATP-33P filter plate; assay type: biochemical; conditions: IC50 values or IC50 ranges (result of several experiments), ATP 10 μM final
casein kinase 1 epsilon (CK1 epsilon), sequence (P49674 whole entry): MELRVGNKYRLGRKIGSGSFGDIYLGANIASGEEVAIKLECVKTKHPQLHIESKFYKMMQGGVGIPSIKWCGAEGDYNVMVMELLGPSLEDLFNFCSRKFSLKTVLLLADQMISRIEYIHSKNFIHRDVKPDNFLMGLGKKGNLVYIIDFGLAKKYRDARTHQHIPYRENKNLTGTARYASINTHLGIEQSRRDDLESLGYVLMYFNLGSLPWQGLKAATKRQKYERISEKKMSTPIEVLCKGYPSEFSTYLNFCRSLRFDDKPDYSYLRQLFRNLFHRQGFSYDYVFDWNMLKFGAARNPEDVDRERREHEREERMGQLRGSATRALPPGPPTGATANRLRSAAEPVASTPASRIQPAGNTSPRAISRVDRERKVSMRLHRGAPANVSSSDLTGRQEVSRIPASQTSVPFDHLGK
Procedure: The capacity of the compounds of the invention to inhibit the phosphorylation of casein by casein kinase 1 epsilon and/or delta may be evaluated according to the procedures described in document US 2005/0 131 012.
Test A: Inhibitory Activity on CK1 Epsilon Measured by Assay on an ATP-^33P Filter Plate
The effect of the compounds on inhibition of the phosphorylation of casein by the enzyme casein kinase 1 epsilon (CK1 epsilon) is measured, using a casein assay via filtration of ATP-^33P in vitro.
Casein kinase 1 epsilon (0.58 mg/ml) is obtained via fermentation and purification processes performed according to methods that are well known to those skilled in the art, or may also be obtained from Invitrogen Corporation™ (human CK1 epsilon).
The compounds are tested at five different concentrations so as to generate IC50 values, i.e. the concentration at which a compound is capable of inhibiting the enzymatic activity by 50%, or alternatively the percentage of inhibition at a concentration of 10 micromolar.
“U”-bottomed Falcon plates are prepared by placing 5 μL of solutions of the compounds according to the invention at concentrations of 10, 1, 0.1, 0.01 or 0.001 μM in different wells. The solutions of the compounds according to the invention at these various concentrations are prepared by diluting in a test buffer (Tris 50 mM pH 7.5, MgCl2 […], DTT 2 mM and EGTA 1 mM) a stock solution in DMSO at a concentration of 10 mM. Next, 5 μL of dephosphorylated casein are added to a final concentration of 0.2 μg/μL, 20 μL of CK1 epsilon to a final concentration of 3 ng/μL, and 20 μL of ATP-^33P to a final concentration of 0.02 μCi/μL mixed with cold ATP (10 μM final—approximately 2×10^6 CPM per well). The final total test volume per well is equal to 50 μL.
The “U”-bottomed Falcon® test plate mentioned above is vortexed, and then incubated at room temperature for 2 hours. After 2 hours the reaction is stopped by adding an ice-cold solution of 65 μL of cold ATP (2 mM) prepared in test buffer.
100 μL of the reaction mixture are then transferred from the “U”-bottomed Falcon® plate into Millipore® MAPH filter plates, preimpregnated with 25 μL of ice-cold 100% TCA.
The Millipore MAPH filter plates are agitated gently and are left to stand at room temperature for at least 30 minutes to precipitate the proteins.
After 30 minutes, the filter plates are sequentially washed and filtered with 2×150 μL of 20% TCA, 2×150 μL of 10% TCA and 2×150 μL of 5% TCA (6 washes in total per plate/900 μL per well).
The plates are left to dry overnight at room temperature. Next, 40 μL of Microscint-20 Packard® scintillation liquid are added per well and the plates are closed in a leaktight manner. The radiation emitted by each well is then measured for 2 minutes in a TopCount NXT Packard® scintillation counter, in which the values of CPM/well are measured.
The percentage inhibition of the capacity of the enzyme to phosphorylate the substrate (casein) is determined for each concentration of test compound. These inhibition data expressed as percentages are used to calculate the IC50 value for each compound compared with the controls.
The kinetic studies determined the KM value for ATP as being 21 μM in this test system.
Table 2 below gives the IC50 values or the IC50 inhibition ranges (result of several experiments) for the phosphorylation of Casein Kinase 1 Epsilon for a number of compounds according to the invention.

| melting point [°C] | IC50 [1] [nM] | Structure (SMILES) |
| --- | --- | --- |
| 203 to 205 | 122 | NC(=O)c1c(-c2cccc(OC(F)(F)F)c2)c(Cl)n2c1CN(C(=O)NC1CCOCC1)CC2 [Compound 97, 6-chloro-N^2-(tetrahydro-2H-pyran-4-yl)-7-[3-(trifluoromethoxy)phenyl]-3,4-dihydropyrrolo[1,2-a]pyrazine-2,8(1H)-dicarboxamide] |
| 227 to 229 | 21 to 28 | NC(=O)c1c(-c2ccccc2)c(Cl)n2c1CN(C(=O)NC1CCOCC1)CC2 [Compound 93, 6-chloro-7-phenyl-N^2-(tetrahydro-2H-pyran-4-yl)-3,4-dihydropyrrolo[1,2-a]pyrazine-2,8(1H)-dicarboxamide] |
| 231 to 234 | 2 to 18 | Cc1cccc(-c2c(C(N)=O)c3n(c2Cl)CCN(C(=O)NC2CCOCC2)C3)c1 [Compound 94, 6-chloro-7-(3-methylphenyl)-N^2-(tetrahydro-2H-pyran-4-yl)-3,4-dihydropyrrolo[1,2-a]pyrazine-2,8(1H)-dicarboxamide] |
| 237 to 240 | < 1 | N#Cc1c(-c2cccc(F)c2)c(C(N)=O)c2n1CCN(C(=O)NC1CCC(F)(F)CC1)C2 [Compound 110, 6-cyano-N^2-(4,4-difluoro-cyclohexyl)-7-(3-fluorophenyl)-3,4-dihydropyrrolo[1,2-a]pyrazine-2,8(1H)-dicarboxamide] |
| 212 to 214 | 1 to 3 | NC(=O)c1c(-c2cccc(F)c2)c(Cl)n2c1CN(C(=O)NC1CCC(F)(F)CC1)CC2 [Compound 89, 6-chloro-N^2-(4,4-difluoro-cyclo-hexyl)-7-(3-fluorophenyl)-3,4-dihydropyrrolo[1,2-a]pyrazine-2,8(1H)-dicarboxamide] |
| 184 to 189 | < 1 | CC(C)(C)NC(=O)N1CCn2c(Br)c(-c3cccc(F)c3)c(C(N)=O)c2C1 [Compound 104, 6-bromo-7-(3-fluorophenyl)-N^2-tert-butyl-3,4-dihydropyrrolo[1,2-a]pyrazine-2,8(1H)-dicarboxamide] |
| 169 to 171 | 4 | N#Cc1c(-c2cccc(F)c2)c(C(N)=O)c2n1CCN(C(=O)NCCCC(F)(F)F)C2 [Compound 108, 6-cyano-7-(3-fluorophenyl)-N^2-(4,4,4-trifluoro-butyl)-3,4-dihydropyrrolo[1,2-a]pyrazine-2,8(1H)-dicarboxamide] |
| 141 to 143 | 4 | CC1(C)CC(NC(=O)N2CCn3c(Cl)c(-c4cccc(F)c4)c(C(N)=O)c3C2)CCO1 (stereo not shown) [Compound 99, 6-chloro-7-(3-fluorophenyl)-N^2-(2,2-dimethyl-tetrahydro-2H-pyran-4-yl)-3,4-dihydropyrrolo[1,2-a]pyrazine-2,8(1H)-dicarboxamide] |
| 220 to 222 | 19 | NC(=O)c1c(-c2cccc(C(F)(F)F)c2)c(Cl)n2c1CN(C(=O)NC1CCOCC1)CC2 [Compound 96, 6-chloro-N^2-(tetrahydro-2H-pyran-4-yl)-7-[3-(trifluoromethyl)phenyl]-3,4-dihydropyrrolo[1,2-a]pyrazine-2,8(1H)-dicarboxamide] |

More lines, now with the values behind:

| Structure (SMILES) | melting point [°C] | IC50 [1] [nM] |
| --- | --- | --- |
| COCC(C)(C)NC(=O)N1CCn2c(c(C(N)=O)c(-c3ccc(OC)cc3)c2C2CC2)C1 [Compound 57, 6-cyclo-propyl-N^2-(1-methoxy-2-methylpropan-2-yl)-7-(4-methoxyphenyl)-3,4-dihydropyrrolo[1,2-a]pyrazine-2,8(1H)-dicarboxamide] | 168 to 170 | 36 |
| NC(=O)c1c(-c2ccccc2)c(Cl)n2c1CN(C(=O)NC1CCCCC1)CC2 [Compound 82, 6-chloro-N^2-cyclo-hexyl-7-phenyl-3,4-dihydropyrrolo[1,2-a]pyrazine-2,8(1H)-dicarboxamide] | 208 to 209 | 1 to 7 |
| CC(C)(C)NC(=O)N1CCn2c(c(C(N)=O)c(-c3cccc(OCc4ccccc4)c3)c2C2CC2)C1 [Compound 34, 7-[3-(benzyloxy)phenyl]-N^2-tert-butyl-6-cyclo-propyl-3,4-dihydropyrrolo[1,2-a]pyrazine-2,8(1H)-dicarboxamide] | 156 to 158 | 315 |
| COc1ccc(-c2c(C(N)=O)c3n(c2C2CC2)CCN(C(=O)NC24CC5CC(CC(C5)C2)C4)C3)cc1 [Compound 55, N^2-(adamantan-1-yl)-6-cyclo-propyl-7-(4-methoxyphenyl)-3,4-dihydropyrrolo[1,2-a]pyrazine-2,8(1H)-dicarboxamide] | 224 to 226 | 3 to 5 |
| COc1ccc(-c2c(C(N)=O)c3n(c2C2CC2)CCN(C(=O)NC2CCOCC2)C3)cc1 [Compound 56, 6-cyclo-propyl-7-(4-methoxyphenyl)-N^2-(tetrahydro-2H-pyran-4-yl)-3,4-dihydropyrrolo[1,2-a]pyrazine-2,8(1H)-dicarboxamide] | 176 to 177 | 26 to 38 |
| COc1ccc(-c2c(C(N)=O)c3n(c2C2CC2)CCN(C(=O)NC24CC5CC(CC2C5)C4)C3)cc1 [Compound 53, 6-cyclo-propyl-N^2-(hexahydro-2,5-methanopentalen-3a(1H)-yl)-7-(4-methoxyphenyl)-3,4-dihydropyrrolo[1,2-a]pyrazine-2,8(1H)-dicarboxamide] | 216 to 219 | 7 |
| COc1ccc(-c2c(C(N)=O)c3n(c2Cl)CCN(C(=O)NC(C)(C)C)C3)cc1 [Compound 64, N^2-tert-butyl-6-chloro-7-(4-methoxyphenyl)-3,4-dihydropyrrolo[1,2-a]pyrazine-2,8(1H)-dicarboxamide] | 168 to 170 | 1 to 5 |
| COc1ccc(-c2c(C(N)=O)c3n(c2C2CC2)CCN(C(=O)NC(C)(C)C)C3)cc1 [Compound 36, N^2-tert-butyl-6-cyclo-propyl-7-[4-(methoxy)phenyl]-3,4-dihydropyrrolo[1,2-a]pyrazine-2,8(1H)-dicarboxamide] | 177 to 179 | 46 to 75 |
| COc1cccc(-c2c(C(N)=O)c3n(c2Cl)CCN(C(=O)NC(C)(C)C)C3)c1 [Compound 62, tert-butyl-6-chloro-7-(3-methoxyphenyl)-3,4-dihydropyrrolo[1,2-a]pyrazine-2,8(1H)-dicarboxamide] | – | 1 to 4 |
| COc1ccc(-c2c(C(N)=O)c3n(c2C)CCN(C(=O)NC(C)(C)C)C3)cc1 [Compound 4, N^2-tert-butyl-7-(4-methoxyphenyl)-6-methyl-3,4-dihydropyrrolo[1,2-a]pyrazine-2,8(1H)-dicarboxamide] | – | 1 to 3 |
| NC(=O)c1c(-c2ccccc2)c(C2CC2)n2c1CN(C(=O)NC1CCCCC1)CC2 [Compound 49, N^2-cyclo-hexyl-6-cyclo-propyl-7-phenyl-3,4-dihydropyrrolo[1,2-a]pyrazine-2,8(1H)-dicarboxamide] | – | 17 to 28 |
| CC(C)(C)NC(=O)N1CCn2c(c(C(N)=O)c(-c3ccc(OCC4CC4)cc3)c2C2CC2)C1 [Compound 37, N^2-tert-butyl-6-cyclo-propyl-7-[4-(cyclo-propylmethoxy)phenyl]-3,4-dihydropyrrolo[1,2-a]pyrazine-2,8(1H)-dicarboxamide] | – | 62 |
| NC(=O)c1c(-c2ccccc2)c(C2CC2)n2c1CN(C(=O)NCC1CCCCC1)CC2 [Compound 50, N^2-(cyclo-hexylmethyl)-6-cyclo-propyl-7-phenyl-3,4-dihydropyrrolo[1,2-a]pyrazine-2,8(1H)-dicarboxamide] | – | 25 |
| CC(C)NC(=O)N1CCn2c(c(C(N)=O)c(-c3ccccc3)c2C2CC2)C1 [Compound 7, 6-cyclo-propyl-7-phenyl-N^2-(iso-propyl)-3,4-dihydropyrrolo[1,2-a]pyrazine-2,8(1H)-dicarboxamide] | – | 42 |
